Earlier results in patent US20160000504A1, “METHOD FOR TRAINING IMMUNE CELLS USING MILLIMETER WAVE THERAPY” (Electrohealing Holdings, Inc., priority 2014, published 2016).
Where a name gives a salt, the structure may show the parent alone.

Test system: B16 melanoma cells
Conditions: 1 mg per kg thirty minutes prior to each treatment; MMWT 61.22 GHz, 5 day delay before first irradiation; groups seven and eight vs three and four (FIG. 2A vs FIG. 2B)

C=CCN1CC[C@]23c4c5ccc(O)c4O[C@H]2C(=O)CC[C@@]3(O)[C@H]1C5 [naloxone hydrochloride]
change in tumor size: effect of opioid antagonist on MMWT inhibition of tumor growth: blocks the beneficial effects of MMWT
